In patent publication US11338040B2, “Immunomodulatory compounds” (Leidos, Inc., priority 2020, dated 2022):
“Also recorded” adds a separate entry of the source. Non-standard residues stand in square brackets, D forms with d. Residues, ends and D or L forms follow the SMILES beside them. Primed or numbered codes have the meaning given here. No end group written: not given here. PEG4′ = PEG linker of 4 PEG units; PEG4 = NCCOCCOCCOCCOCCC(=O)O

Key:
PD1 = molecular target: T1, PD1 (Homo sapiens, UniProt Q15116); experiment: PD1/PDL1 cell reporter assay (PathHunter, Jurkat PD1/SHP1 EFC cells co-incubated with PDL1-presenting U2OS cells); type: cell-based; conditions: FIG. 10
T1 construct: expressed in transfected cells; host or cells: Jurkat cells (PD1-EFC and SHP1-EFC) co-cultured with PDL1-presenting U2OS cells
T1 sequence (Q15116 25-288): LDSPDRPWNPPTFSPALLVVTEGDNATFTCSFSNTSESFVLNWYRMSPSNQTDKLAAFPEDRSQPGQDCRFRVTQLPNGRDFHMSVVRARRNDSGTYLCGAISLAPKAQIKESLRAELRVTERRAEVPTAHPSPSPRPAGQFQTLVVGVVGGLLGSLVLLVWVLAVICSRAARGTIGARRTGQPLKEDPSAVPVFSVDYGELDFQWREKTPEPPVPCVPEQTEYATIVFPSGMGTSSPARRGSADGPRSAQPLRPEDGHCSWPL
Procedure: Jurkat cells expressing PD1 and SHP1 proteins, each fused to a fragment of enzyme fragment complementation (EFC) system, were co-incubated with PDL1-presenting U2OS cells. […] Cells in co-culture were incubated at room temperature (RT) for 2 h (PD1 assay). The assay signal was generated using the PathHunter Bioassay Detection kit. Microplates were read following signal generation using a PerkinElmer ENVISION™ instrument for chemiluminescent signal detection. Inhibitory peptides or antibodies added to the culture result in reduction of light signal. The degree of inhibition was calculated using the following formula: Percent inhibition=100%×[1−(mean RLU of test sample−mean RLU of vehicle control)/mean RLU of EC80 control−mean RLU of vehicle control)].
Peptide conjugates BT1-BT11 were tested at three concentrations: 3.6 μM, 10.8 μM, 32.5 μM in triplicate wells. peptide conjugates were dissolved in DMSO and serially diluted in assay buffer. The highest concentration that can be tested in this assay was 32.5 μM peptide conjugate (1% DMSO).
Peptides LD12 (SEQ ID NO:9), LD10 (SEQ ID NO:1), and LD16 (SEQ ID NO:10) were tested at three concentrations: 11 μM, 33 μM, 100 μM in triplicate. LD peptides were dissolved in water and serially diluted in assay buffer. RLUs were measured at the end of the assay, and % Inhibition (% Efficiency) was calculated using the formula above.

[1] = molecular target: T2, interaction between LAG3 and MHC-II (Homo sapiens, UniProt P18627); experiment: HTRF (TR-FRET) LAG3/MHC-II binding assay; conditions: for response in dilution curve (HTRF signal): 10-fold dilutions starting at 100 μM or 10 μM, FIGS. 2A-9B; for effect on HTRF signal: tested at 100 μM, 10 μM, and 1 μM, FIG. 1; for IC50: LAG3:MHCII TR-FRET full dilution curves
T2 construct: purchased Cisbio US Inc
T2 sequence (P18627 23-450 limits assumed): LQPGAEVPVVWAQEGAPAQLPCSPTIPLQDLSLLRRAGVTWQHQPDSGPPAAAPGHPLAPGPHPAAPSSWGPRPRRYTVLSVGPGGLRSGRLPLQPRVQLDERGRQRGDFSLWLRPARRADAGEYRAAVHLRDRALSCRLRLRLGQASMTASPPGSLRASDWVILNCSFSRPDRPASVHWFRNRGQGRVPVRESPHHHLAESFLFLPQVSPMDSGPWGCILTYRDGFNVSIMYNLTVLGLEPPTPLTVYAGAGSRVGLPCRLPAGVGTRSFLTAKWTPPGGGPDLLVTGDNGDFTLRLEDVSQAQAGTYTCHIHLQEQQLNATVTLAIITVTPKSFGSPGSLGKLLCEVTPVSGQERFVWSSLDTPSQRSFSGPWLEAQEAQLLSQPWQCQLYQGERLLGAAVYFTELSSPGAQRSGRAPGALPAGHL
Source text: A Homogeneous Time-resolved Fluorescence (HTRF) LAG3/MHC-II binding assay (Cisbio US Inc.) was used to measure the interaction between MHC-II and LAG3 in the presence of various peptides and peptide conjugates. In this assay, the interaction between Tag1-LAG3 and Tag2-MHC-II is detected by using anti-Tag1-Terbium (HTRF donor) and anti-Tag2-XL665 (HTRF acceptor). When the donor and acceptor antibodies are brought into close proximity due to LAG3 and MHC-II binding, excitation of the donor antibody triggers fluorescent resonance energy transfer (FRET) towards the acceptor antibody, which in turn emits specifically at 665 nm. This specific signal is directly proportional to the extent of LAG3/MHC-II interaction. Thus, an agent that blocks the interaction between LAG3 and MHC-II will cause a reduction in HTRF ratio.
Each of peptide conjugates BT1, BT2, BT3, BT4, BT5, BT6, BT7, BT8, BT9, and peptides LG11 (LAG3-11), LAG3-56 (SEQ ID NO:5), and LAG3-42 (SEQ ID NO:6) was tested at 3 concentrations: 100 μM, 10 μM, and 1 μM. The dashed-lines represent the HTRF ratio readout of a control ovalbumin peptide (OVA, SEQ ID NO:7) (baseline) at the respective concentrations.
peptide conjugates and LG peptides were tested in full dilution curves in the LAG3:MHCII TR-FRET Assay described above to estimate IC50. peptide conjugates were tested starting at 100 μM or 10 μM. LG peptides were tested starting at 100 μM.

[2] = peptide conjugates at 3.6 μM, 10.8 μM, 32.5 μM in triplicate
[3] = LD peptides at 11 μM, 33 μM, 100 μM in triplicate

Molecule | inhibition of PD1 activity (percent inhibition of light signal) (PD1; [2]) | response in dilution curve (HTRF signal) [1] | effect on HTRF signal [1] | also measured
H2N-(dS)TGQISTLRVNITAPLSQ^1-PEG4-WEGTGQWWDEPWHLPEWPAS^4-amide [BT8] | did not show inhibition at any of the tested concentrations | agonistic activity at 100 μM | two concentrations of BT8 reduced the HTRF signal | 
H2N-(dS)TGQISTLRVNITAPLSQ^1-PEG4-(dS)TGQISTLRVNITAPLSQ^1-amide (peptide 1 H-[dS]TGQISTLRVNITAPLSQ[PEG4′]; peptide 2 [dS]TGQISTLRVNITAPLSQ-NH2; also: chain 1 C-terminus joined to chain 2 N-terminus via PEG4) [BT9, peptide conjugate of two LD10 peptides (forward, forward) separated by a PEG4 linker] | reduced the activity of PD1 at one or two of the tested concentrations | no real effect; also recorded: no or activity only at 100 μM | behaved in this assay like a LAG3 agonist | 
Ac-QSLPATINVRLTSIQGT(dS)^2-PEG4-QSLPATINVRLTSIQGT(dS)^2-amide (peptide 1 Ac-QSLPATINVRLTSIQGT[dS][PEG4′]; peptide 2 QSLPATINVRLTSIQGT[dS]-NH2; also: chain 1 C-terminus joined to chain 2 N-terminus via PEG4) [BT11, peptide conjugate of two LD10 peptides (reverse, reverse) separated by a PEG4 linker] | reduced the activity of PD1 at one or two of the tested concentrations | activity at 100 μM |  | response in dilution curve (HTRF signal) ([1]; listed as B11): no or activity only at 100 μM
CC[C@H](C)[C@H](NC(=O)[C@H](CO)NC(=O)[C@@H](NC(=O)[C@H](CC(C)C)NC(=O)[C@H](CCCNC(=N)N)NC(=O)[C@@H](NC(=O)[C@H](CC(N)=O)NC(=O)[C@@H](NC(=O)[C@@H](NC(=O)[C@H](C)NC(=O)[C@@H]1CCCN1C(=O)[C@H](CC(C)C)NC(=O)[C@H](CO)NC(=O)[C@H](CCC(N)=O)NC(C)=O)[C@@H](C)O)[C@@H](C)CC)C(C)C)[C@@H](C)O)C(=O)N[C@@H](CCC(N)=O)C(=O)NCC(=O)N[C@H](C(=O)N[C@H](CO)C(=O)NCCOCCOCCOCCOCCC(=O)N[C@@H](Cc1c[nH]c2ccccc12)C(=O)N[C@@H](CCC(=O)O)C(=O)NCC(=O)N[C@H](C(=O)NCC(=O)N[C@@H](CCC(N)=O)C(=O)N[C@@H](Cc1c[nH]c2ccccc12)C(=O)N[C@@H](Cc1c[nH]c2ccccc12)C(=O)N[C@@H](CC(=O)O)C(=O)N[C@@H](CCC(=O)O)C(=O)N1CCC[C@H]1C(=O)N[C@@H](Cc1c[nH]c2ccccc12)C(=O)N[C@@H](Cc1c[nH]cn1)C(=O)N[C@@H](CC(C)C)C(=O)N1CCC[C@H]1C(=O)N[C@@H](CCC(=O)O)C(=O)N[C@@H](Cc1c[nH]c2ccccc12)C(=O)N1CCC[C@H]1C(=O)N[C@@H](C)C(=O)N[C@@H](CO)C(N)=O)[C@@H](C)O)[C@@H](C)O [BT6] (Ac-QSLPATINVRLTSIQGT[dS][PEG4]WEGTGQWWDEPWHLPEWPAS-NH2) | did not show inhibition at any of the tested concentrations | reduced the HTRF signal | reduced the HTRF signal | IC50 [1]: 146 nM
H2N-WEGTGQWWDEPWHLPEWPAS^4-PEG4-(dS)TGQISTLRVNITAPLSQ^1-amide [BT3] | did not show inhibition at any of the tested concentrations | agonistic activity at 100 μM and 10 μM |  | 
CC[C@H](C)[C@H](NC(=O)[C@H](CO)NC(=O)[C@@H](NC(=O)[C@H](CC(C)C)NC(=O)[C@H](CCCNC(=N)N)NC(=O)[C@@H](NC(=O)[C@H](CC(N)=O)NC(=O)[C@@H](NC(=O)[C@@H](NC(=O)[C@H](C)NC(=O)[C@@H]1CCCN1C(=O)[C@H](CC(C)C)NC(=O)[C@H](CO)NC(=O)[C@H](CCC(N)=O)NC(C)=O)[C@@H](C)O)[C@@H](C)CC)C(C)C)[C@@H](C)O)C(=O)N[C@@H](CCC(N)=O)C(=O)NCC(=O)N[C@H](C(=O)N[C@H](CO)C(=O)NCCOCCOCCOCCOCCC(=O)N[C@@H](CO)C(=O)N[C@@H](C)C(=O)N1CCC[C@H]1C(=O)N[C@@H](Cc1c[nH]c2ccccc12)C(=O)N[C@@H](CCC(=O)O)C(=O)N1CCC[C@H]1C(=O)N[C@@H](CC(C)C)C(=O)N[C@@H](Cc1c[nH]cn1)C(=O)N[C@@H](Cc1c[nH]c2ccccc12)C(=O)N1CCC[C@H]1C(=O)N[C@@H](CCC(=O)O)C(=O)N[C@@H](CC(=O)O)C(=O)N[C@@H](Cc1c[nH]c2ccccc12)C(=O)N[C@@H](Cc1c[nH]c2ccccc12)C(=O)N[C@@H](CCC(N)=O)C(=O)NCC(=O)N[C@H](C(=O)NCC(=O)N[C@@H](CCC(=O)O)C(=O)N[C@@H](Cc1c[nH]c2ccccc12)C(N)=O)[C@@H](C)O)[C@@H](C)O [BT7] (Ac-QSLPATINVRLTSIQGT[dS][PEG4]SAPWEPLHWPEDWWQGTGEW-NH2) | reduced the activity of PD1 at one or two of the tested concentrations | reduced the HTRF signal | reduced the HTRF signal | IC50 [1]: ~12.8 nM
LD16: positive control peptide LD16 (SEQ ID NO:10) (TSTGQISTLRVNITAPLSQ; LD16 peptide) [reference compound] |  |  |  | inhibition of PD1 activity (percent inhibition of light signal) (PD1; [3]): Good dose-responses
H2N-(dS)TGQISTLRVNITAPLSQ^1-PEG4-QSLPATINVRLTSIQGT(dS)^2-amide [BT10] | reduced the activity of PD1 at one or two of the tested concentrations | activity at 100 μM |  | response in dilution curve (HTRF signal) ([1]; listed as B10): no or activity only at 100 μM
STGQISTLRVNITAPLSQ (LD10 peptide, forward orientation) [positive control peptide] |  |  |  | inhibition of PD1 activity (percent inhibition of light signal) (PD1; [3]): Good dose-responses
LG42: peptide LG42 (LAG3-42; SEQ ID NO:6) (DWNFQQWDWKKHNHLDSHVV; LAG3-42 peptide) [reference compound] |  | no response |  | 
LD10da: peptide LD10da (SEQ ID NO:8) (STGQISTLRVNITAPLSQ; LD10da peptide) [reference compound] |  | no response |  | 
LD12: negative control peptide LD12 (SEQ ID NO:9) (CRRTSTGQISTARVNITAPLSQ; LD12 peptide) [reference compound] |  |  |  | inhibition of PD1 activity (percent inhibition of light signal) (PD1; [3]): did not show inhibition
